Species: Rattus norvegicus
Experiment: DrugMatrix - Regimen: Daily Repeat
Assay type: toxicity, organism-based, Sprague-Dawley
Set-up: regimen Daily Repeat, gender Male, age 6-8 weeks
Conditions: in vivo, po, route oral GAVAGE, vehicle 100 % WATER; for ABSOLUTE BASOPHIL / ABSOLUTE EOSINOPHIL / ABSOLUTE LYMPHOCYTE / ABSOLUTE MONOCYTE / ABSOLUTE SEGMENTED NEUTROPHIL / BASOPHIL / EOSINOPHIL / ERYTHROCYTE COUNT / HEMATOCRIT / HEMOGLOBIN / LEUKOCYTE COUNT / LYMPHOCYTE / MEAN CORPUSCULAR HEMOGLOBIN / MEAN CORPUSCULAR HEMOGLOBIN CONCENTRATION / MEAN CORPUSCULAR VOLUME / MONOCYTE / NEUTROPHIL / NUCLEATED RED BLOOD CELLS / PLATELET COUNT: tissue Blood; for ALANINE AMINOTRANSFERASE / ALBUMIN / ALKALINE PHOSPHATASE / ASPARTATE AMINOTRANSFERASE / BLOOD UREA NITROGEN / CARBON DIOXIDE / CHLORIDE / CHOLESTEROL / CREATINE PHOSPHOKINASE / CREATININE / GLUCOSE / LACTATE DEHYDROGENASE / LIPASE / PHOSPHORUS / POTASSIUM / SODIUM / TOTAL BILIRUBIN / TOTAL PROTEIN / URIC ACID: tissue Plasma
[1] = 3 mg/kg, 120 h, dose level Low, time 5 day
[2] = 47 mg/kg, 72 h, dose level High, time 3 day
[3] = 47 mg/kg, 120 h, dose level High, time 5 day

CN(C)CC[C@@H](c1ccc(Cl)cc1)c1ccccn1 [DEXCHLORPHENIRAMINE]
ABSOLUTE BASOPHIL [1]: 0 CELLS/uL | ABSOLUTE EOSINOPHIL [1]: 0 CELLS/uL | ABSOLUTE LYMPHOCYTE [1]: 15600.33 CELLS/uL | ABSOLUTE MONOCYTE [1]: 181.67 CELLS/uL | ABSOLUTE SEGMENTED NEUTROPHIL [1]: 884.67 CELLS/uL | BASOPHIL [1]: 0% | EOSINOPHIL [1]: 0% | ERYTHROCYTE COUNT [1]: 5.61 x10E6/uL | HEMATOCRIT [1]: 35.43% | HEMOGLOBIN [1]: 14.3 G/DL | LEUKOCYTE COUNT [1]: 16.67 x10E3/uL | LYMPHOCYTE [1]: 93.67% | MEAN CORPUSCULAR HEMOGLOBIN [1]: 25.5 pg | MEAN CORPUSCULAR HEMOGLOBIN CONCENTRATION [1]: 40.33 G/DL | MEAN CORPUSCULAR VOLUME [1]: 63.17 fL | MONOCYTE [1]: 1% | NEUTROPHIL [1]: 5.33% | NUCLEATED RED BLOOD CELLS [1]: 0.33 /100WBC | PLATELET COUNT [1]: 1254.33 x10E3/uL | ALANINE AMINOTRANSFERASE [1]: 55.33 u/L | ALBUMIN [1]: 4.17 G/DL | ALKALINE PHOSPHATASE [1]: 407 u/L | ASPARTATE AMINOTRANSFERASE [1]: 86.33 u/L | BLOOD UREA NITROGEN [1]: 15 mg/dL | CARBON DIOXIDE [1]: 32 mmol/L | CHLORIDE [1]: 102 MEQ/L | CHOLESTEROL [1]: 63.33 mg/dL | CREATINE PHOSPHOKINASE [1]: 451.67 u/L | CREATININE [1]: 0.18 mg/dL | GLUCOSE [1]: 121.33 mg/dL | LACTATE DEHYDROGENASE [1]: 251 u/L | LIPASE [1]: 10.33 u/L | PHOSPHORUS [1]: 12.1 mg/dL | POTASSIUM [1]: 6.1 MEQ/L | SODIUM [1]: 144.9 MEQ/L | TOTAL BILIRUBIN [1]: 0.23 mg/dL | TOTAL PROTEIN [1]: 6.07 G/DL | URIC ACID [1]: 1.37 mg/dL | ABSOLUTE BASOPHIL [2]: 0 CELLS/uL | ABSOLUTE EOSINOPHIL [2]: 62.67 CELLS/uL | ABSOLUTE LYMPHOCYTE [2]: 12240 CELLS/uL | ABSOLUTE MONOCYTE [2]: 133 CELLS/uL | ABSOLUTE SEGMENTED NEUTROPHIL [2]: 864.33 CELLS/uL | BASOPHIL [2]: 0% | EOSINOPHIL [2]: 0.67% | ERYTHROCYTE COUNT [2]: 5.93 x10E6/uL | HEMATOCRIT [2]: 38.13% | HEMOGLOBIN [2]: 14.77 G/DL | LEUKOCYTE COUNT [2]: 13.3 x10E3/uL | LYMPHOCYTE [2]: 91.33% | MEAN CORPUSCULAR HEMOGLOBIN [2]: 24.9 pg | MEAN CORPUSCULAR HEMOGLOBIN CONCENTRATION [2]: 38.73 G/DL | MEAN CORPUSCULAR VOLUME [2]: 64.3 fL | MONOCYTE [2]: 1% | NEUTROPHIL [2]: 7% | NUCLEATED RED BLOOD CELLS [2]: 0 /100WBC | PLATELET COUNT [2]: 1535.33 x10E3/uL | ALANINE AMINOTRANSFERASE [2]: 44.33 u/L | ALBUMIN [2]: 4.03 G/DL | ALKALINE PHOSPHATASE [2]: 352 u/L | ASPARTATE AMINOTRANSFERASE [2]: 75 u/L | BLOOD UREA NITROGEN [2]: 14.67 mg/dL | CARBON DIOXIDE [2]: 33.67 mmol/L | CHLORIDE [2]: 102 MEQ/L | CHOLESTEROL [2]: 65 mg/dL | CREATINE PHOSPHOKINASE [2]: 246.67 u/L | CREATININE [2]: 0.17 mg/dL | GLUCOSE [2]: 153.67 mg/dL | LACTATE DEHYDROGENASE [2]: 134 u/L | LIPASE [2]: 10.67 u/L | PHOSPHORUS [2]: 12.47 mg/dL | POTASSIUM [2]: 6.39 MEQ/L | SODIUM [2]: 145.23 MEQ/L | TOTAL BILIRUBIN [2]: 0.17 mg/dL | TOTAL PROTEIN [2]: 5.97 G/DL | URIC ACID [2]: 1.93 mg/dL | ABSOLUTE BASOPHIL [3]: 0 CELLS/uL | ABSOLUTE EOSINOPHIL [3]: 0 CELLS/uL | ABSOLUTE LYMPHOCYTE [3]: 14891.67 CELLS/uL | ABSOLUTE MONOCYTE [3]: 0 CELLS/uL | ABSOLUTE SEGMENTED NEUTROPHIL [3]: 875 CELLS/uL | BASOPHIL [3]: 0% | EOSINOPHIL [3]: 0% | ERYTHROCYTE COUNT [3]: 6.11 x10E6/uL | HEMATOCRIT [3]: 38.9% | HEMOGLOBIN [3]: 14.93 G/DL | LEUKOCYTE COUNT [3]: 15.77 x10E3/uL | LYMPHOCYTE [3]: 94.33% | MEAN CORPUSCULAR HEMOGLOBIN [3]: 24.47 pg | MEAN CORPUSCULAR HEMOGLOBIN CONCENTRATION [3]: 38.37 G/DL | MEAN CORPUSCULAR VOLUME [3]: 63.73 fL | MONOCYTE [3]: 0% | NEUTROPHIL [3]: 5.67% | NUCLEATED RED BLOOD CELLS [3]: 0 /100WBC | PLATELET COUNT [3]: 1215 x10E3/uL | ALANINE AMINOTRANSFERASE [3]: 35.67 u/L | ALBUMIN [3]: 4.17 G/DL | ALKALINE PHOSPHATASE [3]: 323 u/L | ASPARTATE AMINOTRANSFERASE [3]: 76.67 u/L | BLOOD UREA NITROGEN [3]: 14.67 mg/dL | CARBON DIOXIDE [3]: 30.67 mmol/L | CHLORIDE [3]: 101.33 MEQ/L | CHOLESTEROL [3]: 61.67 mg/dL | CREATINE PHOSPHOKINASE [3]: 322 u/L | CREATININE [3]: 0.13 mg/dL | GLUCOSE [3]: 169.67 mg/dL | LACTATE DEHYDROGENASE [3]: 202.67 u/L | LIPASE [3]: 11 u/L | PHOSPHORUS [3]: 12.57 mg/dL | POTASSIUM [3]: 5.79 MEQ/L | SODIUM [3]: 144.7 MEQ/L | TOTAL BILIRUBIN [3]: 0.2 mg/dL | TOTAL PROTEIN [3]: 6.33 G/DL | URIC ACID [3]: 1.57 mg/dL

Source: ChEMBL document CHEMBL3885881, “DrugMatrix”
